Results on 13 compounds are retold here after US20250122191A1, “COMPOUNDS AS BCL-2 INHIBITORS” (Fochon Biosciences, Ltd, priority 2021, published 2025).

For the test, the system named is Toledo cells. Put plainly: Cell proliferation assay (MTS), Toledo cells. In kind it is cell-based. As to conditions: Homo sapiens, 72 h. The procedure:
MTS testing kit was purchased from Promega (Madison, WI, USA). The RPMI-1640, Fetal bovine serum and Penicillin-Streptomycin were purchased from BI (Biological Industries, Beit Haemek, Israel). Dimethyl sulfoxide (DMSO) was purchased from Sigma (St. Louis., MO, USA). Toledo (ATCC catalog #: CRL-2631) cells were cultured in RPMI-1640 supplemented with Penicillin-Streptomycin and 10% FBS.
To investigate whether a compound is able to inhibit the activity of BCL-2 in cells, a mechanism-based assay using Toledo lines was developed. In this assay, the inhibition of BCL-2 was reflected by the inhibition of cell proliferation of Toledo cells. Cells were plated into 96-well plates at the optimized cell density of 30000 cells/well. Plates were incubated at 37° C., with 5% CO2 for 4 h. Compounds were serially diluted and added to the plates with the final concentrations of 10000, 3333.3, 1111.1, 370.4, 123.5, 41.2, 13.7, 4.6 and 1.5 nM. Plates were incubated at 37° C., with 5% CO2 for 72 h. 20 μl MTS was added into each well and the plates were incubated at 37° C., with 5% CO2 for exactly 2 h. The absorbance was measured by a microplate reader at 490 nm. IC50 was calculated using GraphPad Prism 5.0 software.
For `CCOc1nc2[nH]cc(F)c2cc1Oc1cc(N2CCC3(CC2)CC(N2CCN(Cc4ccc(OC)c(F)c4)C[C@H]2c2ccccc2C(C)C)C3)ccc1C(=O)NS(=O)(=O)c1cnc(NC[C@H]2CC[C@](C)(O)CC2)c([N+](=O)[O-])c1` [Example 98, 2-((6-ethoxy-3-fluoro-1H-pyrrolo[2,3-b]pyridin-5-yl)oxy)-4-(2-((R)-4-(3-fluoro-4-methoxybenzyl)-2-(2-isopropylphenyl)piperazin-1-yl)-7-azaspiro[3.5]nonan-7-yl)-N-((6-((((1r,4r)-4-hydroxy-4-methylcyclohexyl)methyl)amino)-5-nitropyridin-3-yl)sulfonyl)benzamide], half-maximal inhibition (IC50) was put at 1 nM. This counts as single-digit nanomolar. As to `CCOc1nc2[nH]cc(F)c2cc1Oc1cc(N2CCC3(CC2)CC(N2CCN(C(C)C)C[C@H]2c2ccccc2C(C)C)C3)ccc1C(=O)NS(=O)(=O)c1cnc(NC[C@H]2CC[C@](C)(O)CC2)c([N+](=O)[O-])c1` [Example 100, 2-((6-ethoxy-3-fluoro-1H-pyrrolo[2,3-b]pyridin-5-yl)oxy)-N-((6-((((1r,4r)-4-hydroxy-4-methylcyclohexyl)methyl)amino)-5-nitropyridin-3-yl)sulfonyl)-4-(2-((R)-4-isopropyl-2-(2-isopropylphenyl)piperazin-1-yl)-7-azaspiro[3.5]nonan-7-yl)benzamide], the IC50 (commonly the concentration needed to halve the response being measured) worked out at 1 nM. `CCOc1nc2[nH]cc(F)c2cc1Oc1cc(N2CCC3(CC2)CC(N2CCN(Cc4cc(F)c(OC)c(F)c4)C[C@H]2c2ccccc2C(C)C)C3)ccc1C(=O)NS(=O)(=O)c1cnc(NC[C@H]2CC[C@](C)(O)CC2)c([N+](=O)[O-])c1` [Example 108, 4-(2-((R)-4-(3,5-difluoro-4-methoxybenzyl)-2-(2-isopropylphenyl)piperazin-1-yl)-7-azaspiro[3.5]nonan-7-yl)-2-((6-ethoxy-3-fluoro-1H-pyrrolo[2,3-b]pyridin-5-yl)oxy)-N-((6-((((1r,4r)-4-hydroxy-4-methylcyclohexyl)methyl)amino)-5-nitropyridin-3-yl)sulfonyl)benzamide] displayed an IC50 of 1 nM. As for `CCOc1nc2[nH]cc(F)c2cc1Oc1cc(N2CCC3(CC2)CC(N2CCN(Cc4ccc(OC)cn4)C[C@H]2c2ccccc2C(C)C)C3)ccc1C(=O)NS(=O)(=O)c1cnc(NC[C@H]2CC[C@](C)(O)CC2)c([N+](=O)[O-])c1` [Example 121, 2-((6-ethoxy-3-fluoro-1H-pyrrolo[2,3-b]pyridin-5-yl)oxy)-N-((6-((((1r,4r)-4-hydroxy-4-methylcyclohexyl)methyl)amino)-5-nitropyridin-3-yl)sulfonyl)-4-(2-((R)-2-(2-isopropylphenyl)-4-((5-methoxypyridin-2-yl)methyl)piperazin-1-yl)-7-azaspiro[3.5]nonan-7-yl)benzamide], the figure is 1 nM; as for `CCOc1nc2[nH]cc(F)c2cc1Oc1cc(N2CCC3(CC2)CC(N2CCN(C4CC4)C[C@H]2c2ccccc2C(C)C)C3)ccc1C(=O)NS(=O)(=O)c1cnc(NC[C@H]2CC[C@](C)(O)CC2)c([N+](=O)[O-])c1` [Example 144, 4-(2-((R)-4-cyclopropyl-2-(2-isopropylphenyl)piperazin-1-yl)-7-azaspiro[3.5]nonan-7-yl)-2-((6-ethoxy-3-fluoro-1H-pyrrolo[2,3-b]pyridin-5-yl)oxy)-N-((6-((((1r,4r)-4-hydroxy-4-methylcyclohexyl)methyl)amino)-5-nitropyridin-3-yl)sulfonyl)benzamide], 1 nM; as for `COc1nc2[nH]cc(F)c2cc1Oc1cc(N2CCC3(CC2)CC(N2CCN(C(C)=O)C[C@H]2c2ccccc2C(C)C)C3)ccc1C(=O)NS(=O)(=O)c1cnc(NC[C@H]2CC[C@](C)(O)CC2)c([N+](=O)[O-])c1` [Example 146, 4-(2-((R)-4-acetyl-2-(2-isopropylphenyl)piperazin-1-yl)-7-azaspiro[3.5]nonan-7-yl)-2-((3-fluoro-6-methoxy-1H-pyrrolo[2,3-b]pyridin-5-yl)oxy)-N-((6-((((1r,4r)-4-hydroxy-4-methylcyclohexyl)methyl)amino)-5-nitropyridin-3-yl)sulfonyl)benzamide], 1 nM.

Compound `CCOc1nc2[nH]cc(F)c2cc1Oc1cc(N2CCC3(CC2)CC(N2CCN(C(C)=O)C[C@H]2c2ccccc2C(C)C)C3)ccc1C(=O)NS(=O)(=O)c1cnc(NC[C@H]2CC[C@](C)(O)CC2)c([N+](=O)[O-])c1` [Example 147, 4-(2-((R)-4-acetyl-2-(2-isopropylphenyl)piperazin-1-yl)-7-azaspiro[3.5]nonan-7-yl)-2-((6-ethoxy-3-fluoro-1H-pyrrolo[2,3-b]pyridin-5-yl)oxy)-N-((6 ((((1r,4r)-4-hydroxy-4-methylcyclohexyl)methyl)amino)-5-nitropyridin-3-yl)sulfonyl)benzamide] registered an IC50 of 1 nM. As for `CC(=O)N1CCN(C2CC3(CCN(c4ccc(C(=O)NS(=O)(=O)c5cnc(NC[C@H]6CC[C@](C)(O)CC6)c([N+](=O)[O-])c5)c(Oc5cnc6[nH]cc(F)c6c5)c4)CC3)C2)[C@H](c2ccccc2C(C)C)C1` [Example 148, 4-(2-((R)-4-acetyl-2-(2-isopropylphenyl)piperazin-1-yl)-7-azaspiro[3.5]nonan-7-yl)-2-((3-fluoro-1H-pyrrolo[2,3-b]pyridin-5-yl)oxy)-N-((6-((((1r,4r)-4-hydroxy-4-methylcyclohexyl)methyl)amino)-5-nitropyridin-3-yl)sulfonyl)benzamide], the figure is 1 nM. As for `CCOc1nc2[nH]cc(F)c2cc1Oc1cc(N2CCC3(CC2)CC(N2CCN(Cc4ccncc4)C[C@H]2c2ccccc2C(C)C)C3)ccc1C(=O)NS(=O)(=O)c1cnc(NC[C@H]2CC[C@](C)(O)CC2)c([N+](=O)[O-])c1` [Example 238, 2-((6-ethoxy-3-fluoro-1H-pyrrolo[2,3-b]pyridin-5-yl)oxy)-N-((6-((((1r,4r)-4-hydroxy-4-methylcyclohexyl)methyl)amino)-5-nitropyridin-3-yl)sulfonyl)-4-(2-((R)-2-(2-isopropylphenyl)-4-(pyridin-4-ylmethyl)piperazin-1-yl)-7-azaspiro[3.5]nonan-7-yl)benzamide], the figure is 1 nM; as for `COc1nc2[nH]cc(F)c2cc1Oc1cc(N2CCC3(CC2)CC(N2CCN(Cc4ccc5c(c4)OCCO5)C[C@H]2c2ccccc2C(C)C)C3)ccc1C(=O)NS(=O)(=O)c1cnc(NC[C@H]2CC[C@](C)(O)CC2)c([N+](=O)[O-])c1` [Example 321, 4-(2-((R)-4-((2,3-dihydrobenzo[b][1,4]dioxin-6-yl)methyl)-2-(2-isopropylphenyl)piperazin-1-yl)-7-azaspiro[3.5]nonan-7-yl)-2-((3-fluoro-6-methoxy-1H-pyrrolo[2,3-b]pyridin-5-yl)oxy)-N-((6-((((1r,4r)-4-hydroxy-4-methylcyclohexyl)methyl)amino)-5-nitropyridin-3-yl)sulfonyl)benzamide], 1 nM. `CC(C)c1ccccc1[C@@H]1CN(Cc2ccc3c(c2)OCCO3)CCN1C1CC2(CCN(c3ccc(C(=O)NS(=O)(=O)c4cnc(NC[C@H]5CC[C@](C)(O)CC5)c([N+](=O)[O-])c4)c(Oc4cnc5[nH]cc(F)c5c4)c3)CC2)C1` [Example 322, 4-(2-((R)-4-((2,3-dihydrobenzo[b][1,4]dioxin-6-yl)methyl)-2-(2-isopropylphenyl)piperazin-1-yl)-7-azaspiro[3.5]nonan-7-yl)-2-((3-fluoro-1H-pyrrolo[2,3-b]pyridin-5-yl)oxy)-N-((6-((((1r,4r)-4-hydroxy-4-methylcyclohexyl)methyl)amino)-5-nitropyridin-3-yl)sulfonyl)benzamide] came in with an IC50 of 1 nM. That is a single-digit nanomolar value.

For the compound `CC(C)c1ccccc1[C@@H]1CN(Cc2ccc(S(C)(=N)=O)cc2)CCN1C1CC2(CCN(c3ccc(C(=O)NS(=O)(=O)c4cnc(NC[C@H]5CC[C@](C)(O)CC5)c([N+](=O)[O-])c4)c(Oc4cnc5[nH]cc(F)c5c4)c3)CC2)C1` (stereo partly drawn) [Example 337, 2-((3-fluoro-1H-pyrrolo[2,3-b]pyridin-5-yl)oxy)-N-((6-((((1r,4r)-4-hydroxy-4-methylcyclohexyl)methyl)amino)-5-nitropyridin-3-yl)sulfonyl)-4-(2-((2R)-2-(2-isopropylphenyl)-4-(4-(S-methylsulfonimidoyl)benzyl)piperazin-1-yl)-7-azaspiro[3.5]nonan-7-yl)benzamide], the IC50 came out at 1 nM. As for `CC(C)c1ccccc1[C@@H]1CN(Cc2ccc(OC(F)F)cc2)CCN1C1CC2(CCN(c3ccc(C(=O)NS(=O)(=O)c4cnc(NC[C@H]5CC[C@](C)(O)CC5)c([N+](=O)[O-])c4)c(Oc4cnc5[nH]cc(F)c5c4)c3)CC2)C1` [Example 343, 4-(2-((R)-4-(4-(difluoromethoxy)benzyl)-2-(2-isopropylphenyl)piperazin-1-yl)-7-azaspiro[3.5]nonan-7-yl)-2-((3-fluoro-1H-pyrrolo[2,3-b]pyridin-5-yl)oxy)-N-((6-((((1r,4r)-4-hydroxy-4-methylcyclohexyl)methyl)amino)-5-nitropyridin-3-yl)sulfonyl)benzamide], the figure is 1 nM.
